Patent publication US6737383B1, “Herbicidal oxadiazolidines” (priority 1999, dated 2004)

Columns and labels:
surinam grass = test: Test C postemergence surinam grass; format: in vivo, Brachiaria decumbens; details: 0 to 100 scale, 0 no effect, 100 complete control
Description: (§1) Compounds evaluated in this test were formulated in a non-phytotoxic solvent mixture which included a surfactant and applied to plants that were grown for various periods of time before treatment (postemergence application). A mixture of sandy loam soil and greenhouse potting mix in a 60:40 ratio was used for the postemergence test.
(§2) Plantings of these crops and weed species were adjusted to produce plants of appropriate size for the postemergence test. All plant species were grown using normal greenhouse practices. Crop and weed species include arrowleaf sida (Sida rhombifolia), barnyardgrass (Echinochloa crus-galli), cocklebur (Xanthium strumarium), common ragweed (Ambrosia elatior), corn (Zea mays), cotton (Gossypium hirsutum), eastern black nightshade (Solanum ptycanthum), fall panicum (Panicum dichotomiflorum), field bindweed (Convolvulus arvensis), giant foxtail (Setaria faberii), hairy beggarticks (Bidens pilosa), ivyleaf morningglory (Ipomoea hederacea), johnsongrass (Sorghum halepense), ladysthumb smartweed (Polygonum persicaria), lambsquarters (Chenopodium album), large crabgrass (Digitaria sanguinalis), purple nutsedge (Cyperus rotundus), redroot pigweed (Amaranthus retroflexus), soybean (Glycine max), surinam grass (Brachiaria decumbens), velvetleaf (Abutilon theophrasti) and wild poinsettia (Euphorbia heterophylla).
(§3) Treated plants and untreated controls were maintained in a greenhouse for approximately 14, to 21 days, after which all treated plants were compared to untreated controls and visually evaluated. Plant response ratings, summarized in Table C, were based upon a 0 to 100 scale where 0 was no effect and 100 was complete control. A dash response (−) means no test result.

ivyleaf morningglory = test: Test C postemergence ivyleaf morningglory; format: in vivo, Ipomoea hederacea; details: 0 to 100 scale, 0 no effect, 100 complete control
Description: as §1, §2, §3

sunflower = test: Test E sunflower; format: in vivo, Helianthus annuus; details: Postemergence
Description: […] All plant species were grown using normal greenhouse practices. Crop and weed species include annual bluegrass (Poa annua), blackgrass (Alopecurus myosuroides), black nightshade (Solanum nigra), chickweed (Stellaria media), common poppy (Papaver rhoeas), deadnettle (Lamium amplexicaule), downy brome (Bromus tectorum), field violet (Viola arvensis), galium (Galium aparine), green foxtail (Setaria viridis), Italian ryegrass (Lolium multiflorum), jointed goatgrass (Aegilops cylindrica), kochia (Kochia scoparia), lambsquarters (Chenopodium album), littleseed canarygrass (Phalaris minor), rape (Brassica napus), redroot pigweed (Amaranthus retroflexus), Russian thistle (Salsola kali), scentless chamomile (Matricaria inodora), spring barley (Hordeum vulgare), sugar beet (Beta vulgaris), sunflower (Helianthus annuus), ivyleaf speedwell (Veronica hederaefolia), spring wheat (Triticum aestivum), winter wheat (Triticum aestivum), wild buckwheat (Polygonum convolvulus), wild mustard (Sinapis arvensis), wild oat (Avena fatua), windgrass (Apera spica-venti) and winter barley (Hordeum vulgare).
(§4) Treated plants and untreated controls were maintained in a greenhouse for approximately 21 to 28 days, after which all treated plants were compared to untreated controls and visually evaluated. […] A dash response (-) means no test result.

johnsongrass = test: Test C postemergence johnsongrass; format: in vivo, Sorghum halepense; details: 0 to 100 scale, 0 no effect, 100 complete control
Description: as §1, §2, §3

fall panicum = test: Test C postemergence fall panicum; format: in vivo, Panicum dichotomiflorum; details: 0 to 100 scale, 0 no effect, 100 complete control
How it was run: (§5)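 Postemergence spray; formulation = non-phytotoxic solvent + surfactant; soil 60:40 sandy loam:greenhouse potting mix; greenhouse, ~14–21 d; visual rating vs untreated, 0–100 (100 = complete control).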

kochia = test: Test E kochia; format: in vivo, Kochia scoparia; details: Postemergence
Description: (§6) Compounds evaluated in this test were formulated in a non-phytotoxic solvent mixture which included a surfactant and applied to plants that were in the 1- to 4-leaf stage (postemergence application). A mixture of sandy loam soil and greenhouse potting mix in a 60:40 ratio was used for the postemergence test.
(§7) Plantings of these crops and weed species were adjusted to produce plants of appropriate size for the postemergence test. All plant species were grown using normal greenhouse practices. Crop and weed species include annual bluegrass (Poa annua), blackgrass (Alopecurus myosuroides), black nightshade (Solanum nigra), chickweed (Stellaria media), common poppy (Papaver rhoeas), deadnettle (Lamium amplexicaule), downy brome (Bromus tectorum), field violet (Viola arvensis), galium (Galium aparine), green foxtail (Setaria viridis), Italian ryegrass (Lolium multiflorum), jointed goatgrass (Aegilops cylindrica), kochia (Kochia scoparia), lambsquarters (Chenopodium album), littleseed canarygrass (Phalaris minor), rape (Brassica napus), redroot pigweed (Amaranthus retroflexus), Russian thistle (Salsola kali), scentless chamomile (Matricaria inodora), spring barley (Hordeum vulgare), sugar beet (Beta vulgaris), sunflower (Helianthus annuus), ivyleaf speedwell (Veronica hederaefolia), spring wheat (Triticum aestivum), winter wheat (Triticum aestivum), wild buckwheat (Polygonum convolvulus), wild mustard (Sinapis arvensis), wild oat (Avena fatua), windgrass (Apera spica-venti) and winter barley (Hordeum vulgare).
as §4

lambsquarters = test: Test C postemergence lambsquarters; format: in vivo, Chenopodium album; details: 0 to 100 scale, 0 no effect, 100 complete control
How it was run: as §5

giant foxtail = test: Test C postemergence giant foxtail; format: in vivo, Setaria faberii; details: 0 to 100 scale, 0 no effect, 100 complete control
Description: as §1, §2, §3

redroot pigweed [1] = test: Test E redroot pigweed; format: in vivo, Amaranthus retroflexus; details: Preemergence
black nightshade = test: Test E black nightshade; format: in vivo, Solanum nigra; details: Postemergence
Description: as §6, §7, §4

redroot pigweed [2] = test: Test C postemergence redroot pigweed; format: in vivo, Amaranthus retroflexus; details: 0 to 100 scale, 0 no effect, 100 complete control
Description: as §1, §2, §3

[3] = Rate 250 g/ha, 0 to 100 scale (0 no effect, 100 complete control)
[4] = Rate 500 g/ha, 0 to 100 scale, 0 no effect, 100 complete control

Row | Structure (SMILES) | Plant response rating Surinam grass (surinam grass; Rate 140 g/ha) | Plant response rating Surinam grass (surinam grass; Rate 280 g/ha) | Plant response rating Surinam grass (surinam grass; Rate 560 g/ha) | Plant response rating Surinam grass (surinam grass; Rate 1120 g/ha) | Plant response rating I. morningglory (ivyleaf morningglory; Rate 140 g/ha) | Plant response rating I. morningglory (ivyleaf morningglory; Rate 280 g/ha) | Plant response rating I. morningglory (ivyleaf morningglory; Rate 560 g/ha) | Plant response rating Johnsongrass (johnsongrass; Rate 140 g/ha) | Plant response rating Johnsongrass (johnsongrass; Rate 280 g/ha) | Plant response rating Johnsongrass (johnsongrass; Rate 560 g/ha) | Plant response rating Johnsongrass (johnsongrass; Rate 1120 g/ha) | Plant response rating Fall panicum (fall panicum; Rate 140 g/ha) | Plant response rating Fall panicum (fall panicum; Rate 280 g/ha) | Plant response rating Fall panicum (fall panicum; Rate 560 g/ha) | Plant response rating Fall panicum (fall panicum; Rate 1120 g/ha) | Plant response rating Lambsquarters (lambsquarters; Rate 140 g/ha) | Plant response rating Lambsquarters (lambsquarters; Rate 280 g/ha) | Plant response rating Lambsquarters (lambsquarters; Rate 560 g/ha) | Plant response rating Lambsquarters (lambsquarters; Rate 1120 g/ha) | Plant response rating, Giant foxtail (giant foxtail; Rate 140 g/ha) | also measured
1 | CC(C)N(C(=O)n1oc(=O)n(C(C)C)c1=O)c1ccc(F)cc1F [Compound 109] | 0 | 5 | 50 | 95 | 0 | 50 | 50 | 0 | 10 | 60 | 95 | 50 | 50 | 80 | 95 | 10 | 10 | 30 | 70 | 50 | Plant response rating I. morningglory (ivyleaf morningglory; Rate 1120 g/ha): 70; Plant response rating, Sunflower (sunflower; Rate 125 g/ha, 0 to 100 scale): 30; Plant response rating, Sunflower (sunflower; [3]): 30; Plant response rating, Sunflower (sunflower; [4]): 40; Plant response rating, Kochia (kochia; Rate 125 g/ha, 0 to 100 scale): 30; Plant response rating, Kochia (kochia; [3]): 30; Plant response rating, Kochia (kochia; [4]): 50; Plant response rating, Giant foxtail (giant foxtail; Rate 280 g/ha): 80; Plant response rating, Giant foxtail (giant foxtail; Rate 560 g/ha): 80; Plant response rating, Giant foxtail (giant foxtail; Rate 1120 g/ha): 85; Plant response rating, Redroot pigweed (redroot pigweed [1]; Rate 125 g/ha, 0 to 100 scale (0 no effect, 100 complete control)): 70; Plant response rating, Redroot pigweed (redroot pigweed [1]; Rate 250 g/ha, 0 to 100 scale): 100; Plant response rating, Redroot pigweed (redroot pigweed [1]; Rate 500 g/ha, 0 to 100 scale where 0 is no effect and 100 is complete control): 100; Plant response rating, Blk nightshade (black nightshade; Rate 125 g/ha, 0 to 100 scale): 40; Plant response rating, Blk nightshade (black nightshade; [3]): 40; Plant response rating, Blk nightshade (black nightshade; [4]): 60; Plant response rating, Redroot pigweed (redroot pigweed [2]; Rate 140 g/ha): 0; Plant response rating, Redroot pigweed (redroot pigweed [2]; Rate 280 g/ha): 40; Plant response rating, Redroot pigweed (redroot pigweed [2]; Rate 560 g/ha): 70; Plant response rating, Redroot pigweed (redroot pigweed [2]; Rate 1120 g/ha): 85
2 | Cc1ccc(N(C(=O)n2oc(=O)n(C(C)C)c2=O)C(C)C)cc1 [Compound 132] | 0 | 0 | 0 | 30 | 0 | 0 | 0 | 0 | 0 | 0 | 60 | 0 | 30 | 50 | 50 | 0 | 0 | 0 | 0 | 0 | Plant response rating I. morningglory (ivyleaf morningglory; Rate 1120 g/ha): 0; Plant response rating, Giant foxtail (giant foxtail; Rate 280 g/ha): 0; Plant response rating, Giant foxtail (giant foxtail; Rate 560 g/ha): 0; Plant response rating, Giant foxtail (giant foxtail; Rate 1120 g/ha): 0; Plant response rating, Redroot pigweed (redroot pigweed [2]; Rate 140 g/ha): 0; Plant response rating, Redroot pigweed (redroot pigweed [2]; Rate 280 g/ha): 10; Plant response rating, Redroot pigweed (redroot pigweed [2]; Rate 1120 g/ha): 30
3 | CC(C)N(C(=O)n1oc(=O)n(Cc2ccccc2)c1=O)c1ccccc1 [Compound 94] | 0 | 0 | 0 | 10 | 0 | 10 | 90 | 0 | 0 | 0 | 0 | 0 | 0 | 10 | 70 | 0 | 5 | 10 | 30 | 0 | Plant response rating, Giant foxtail (giant foxtail; Rate 280 g/ha): 0; Plant response rating, Giant foxtail (giant foxtail; Rate 560 g/ha): 10; Plant response rating, Giant foxtail (giant foxtail; Rate 1120 g/ha): 40; Plant response rating, Redroot pigweed (redroot pigweed [2]; Rate 560 g/ha): 0; Plant response rating, Redroot pigweed (redroot pigweed [2]; Rate 1120 g/ha): 0
